Consider eight compounds from US5240934A, “Quinoline derivatives” (priority 1990, dated 1993).

For experiment [1], the target named is acetylcholinesterase (Homo sapiens, UniProt P22303). Briefly: Inhibitive effect on acetylcholinesterase activity (anti-acetylcholinesterase activity). In kind it is biochemical. The method, then:
Pharmacological action of the compound of the present invention was tested using several compounds prepared in Examples presented hereinafter and 9-amino-1,2,3,4-tetrahydroacridine (Tacrine) as a comparative compound.
Specific activities for the tested compounds were calculated using the following equation. [formula]

Experiment [2] deals with Amnesia Induced by Scopolamine in Mice. Kind of experiment: Effects on amnesia induced by scopolamine in mice (passive avoidance test). In kind it is in vivo, Male ddy mice. The conditions noted are these: p.o., 30 min before scopolamine 1 mg/kg i.p. The method, then: Male ddy mice, 6-7 week old, were used as subjects. A conventional two-compartment box was used for the passive avoidance test.
Tested compounds were given p.o. 30 minutes before scopolamine (1 mg/kg, i.p.). At 30 minutes after the scopolamine treatment, scrambled foot-schock (2 mA for 3 seconds) was applied to the mouse immediately after entry into the dark compartment. Retention was measured 6 hours after the training and was expressed as the mean latency to enter the dark compartment, with a cut-off point at 300 seconds. Percent improvement for the tested compounds were evaluated taking the difference between the retention latency of the untreated group and that of the control group as 100%.

For experiment [3], the system named is Amnesia Induced by Scopolamine in Rats. Kind of experiment: Effects on amnesia induced by scopolamine in rats (passive avoidance test). The conditions noted are these: p.o., 15 min after scopolamine hydrochloride 0.5 mg/kg i.p. In kind it is in vivo, Male Wister rats. The method, then: Male Wister rats, 8 week old, were used as subjects. A conventional two-compartment box was used for the passive avoidance test.
Tested compounds were given p.o. 15 minutes after scopolamine hydrochloride (0.5 mg/kg, i.p.). At 15 minutes after the tested compound treatment, scrambled foot-schock (0.5 mA for 3 seconds) was applied to the rat immediately after entry into the dark compartment. Retention was measured 24 hours after the training and was expressed as the mean latency to enter the dark compartment, with a cut-off point at 600 seconds. Percent improvement for the tested compounds was evaluated taking the difference between the retention latency of the untreated group and that of the control group as 100%.

The test system of experiment [4] is senile dementia patients of Alzheimer type. The conditions noted are these: Tacrine and lecithin; The New England Journal of Medicine, 315, 1241 (1986); cited from earlier work.

Molecules are shown by their SMILES. Where a name gives a salt, the structure may show the parent alone.

Chain of acetylcholinesterase (P22303 32-614): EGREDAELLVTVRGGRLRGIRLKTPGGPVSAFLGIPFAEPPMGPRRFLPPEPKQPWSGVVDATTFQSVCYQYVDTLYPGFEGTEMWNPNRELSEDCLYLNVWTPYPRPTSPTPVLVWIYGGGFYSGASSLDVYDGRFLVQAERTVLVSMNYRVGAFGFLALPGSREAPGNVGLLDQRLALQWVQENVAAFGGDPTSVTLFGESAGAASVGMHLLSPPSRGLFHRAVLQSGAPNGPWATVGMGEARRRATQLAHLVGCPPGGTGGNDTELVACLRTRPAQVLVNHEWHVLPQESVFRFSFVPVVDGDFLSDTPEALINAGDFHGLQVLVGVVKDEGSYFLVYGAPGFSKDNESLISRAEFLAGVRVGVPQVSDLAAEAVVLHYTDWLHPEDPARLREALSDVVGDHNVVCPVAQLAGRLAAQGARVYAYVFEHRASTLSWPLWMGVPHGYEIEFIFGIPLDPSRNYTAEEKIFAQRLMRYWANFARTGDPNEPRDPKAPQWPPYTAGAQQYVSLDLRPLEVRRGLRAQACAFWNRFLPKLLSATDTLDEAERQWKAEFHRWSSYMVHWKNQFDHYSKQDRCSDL

Turning to `N#Cc1ccccc1NC1=CC(=O)N(CCC2CCN(Cc3ccccc3)CC2)C1` [Compound 2, N-(1-(4-(1-benzylpiperidyl)ethyl)-2-oxo-3-pyrrolin-4-yl)-2-aminobenzonitrile], in experiment [1], the “Anti-acetylcholinesterase Activity (Specific Activity)” value (from here on “Anti-acetylcholinesterase Activity”) worked out at 7.7. Moreover, the entries for the “Percent Improvement” value in experiment [2] (0.01 mg/kg) and in experiment [2] (0.3 mg/kg) were 10.0% and 72.8%, respectively.

For `N#Cc1ccccc1NC1=CC(=O)N(CCCC2CCN(Cc3ccccc3)CC2)C1` [Compound 3, N-(1-(4-(1-benzylpiperidyl)propyl)-2-oxo-3-pyrrolin-4-yl)-2-aminobenzonitrile], the “Anti-acetylcholinesterase Activity” value in experiment [1] was determined as 13.5. The “Percent Improvement” value turned out to be 16.0% in experiment [2] (0.1 mg/kg) and 53.4% in experiment [2] (0.3 mg/kg).

In the case of `Nc1c2c(nc3ccccc13)CN(CCC1CCN(Cc3ccccc3)CC1)C2=O` [Compound 7, 9-Amino-2-(4-(1-benzylpiperidyl)ethyl)-2,3-dihydropyrrolo-[3,4-b]quinolin-1-one], in experiment [1], the “Anti-acetylcholinesterase Activity” value is on record as 1.94. Besides, the “Percent Improvement” value in experiment [2] (0.03 mg/kg) was 52.0%; in experiment [2] (0.1 mg/kg) it was 70.2%; in experiment [3] (0.03 mg/kg), 36.1%; in experiment [3] (0.1 mg/kg), 68.9%; in experiment [3] (0.3 mg/kg), 69.8%.

As to `Cl.Cl.Nc1c2c(nc3ccccc13)CCC(CCC1CCN(Cc3ccccc3)CC1)C2=O` (stereo not drawn) [Compound 14, 9-amino-2-(2-(1-benzylpiperidin-4-yl)ethyl)-1,2,3,4-tetrahydroacridin-1-one dihydrochloride], the “Anti-acetylcholinesterase Activity” value in experiment [1] was determined as 5.00. For the same compound, the “Percent Improvement” value came out at 50.0% in experiment [2] (0.03 mg/kg), 71.9% in experiment [2] (0.1 mg/kg), 0% in experiment [3] (0.1 mg/kg) and 50.8% in experiment [3] (0.3 mg/kg).

Consider `Nc1c2c(nc3ccccc13)CCC(CCCCC1CCN(Cc3ccccc3)CC1)C2=O` (stereo not drawn) [Compound 46, 9-Amino-2-(4-(1-benzylpiperidin-4-yl)butyl)-1,2,3,4-tetrahydroacridin-1-onedihydrochloride], for which the “Anti-acetylcholinesterase Activity” value in experiment [1] was found to be 47.62. Moreover, the “Percent Improvement” value in experiment [3] (0.1 mg/kg) stood at 32.3%; in experiment [3] (0.3 mg/kg), 39.1%.

For the compound `O=C1c2c(nc3ccccc3c2O)CN1CCC1CCN(Cc2ccccc2)CC1` [Compound 61, 9-hydroxy-2-(4-(1-benzylpiperidyl)ethyl)-2,3-dihydropyrrolo[3,4-b]quinolin-1-one], the “Percent Improvement” value was 33.0% in experiment [3] (0.03 mg/kg), 86.1% in experiment [3] (0.1 mg/kg) and 86.5% in experiment [3] (0.3 mg/kg).

As to `COc1c2c(nc3ccccc13)CN(CCC1CCN(Cc3ccccc3)CC1)C2=O` [Compound 67, 9-methoxy-2-(4-(1-benzylpiperidyl)ethyl)-2,3-dihydropyrrolo[3,4-b]quinolin-1-one], in experiment [1], the “Anti-acetylcholinesterase Activity” value was 9.52. In addition, the “Percent Improvement” value is on record as 50.4% in experiment [3] (0.03 mg/kg), 92.0% in experiment [3] (0.1 mg/kg) and 95.8% in experiment [3] (0.3 mg/kg).

For `Nc1c2c(nc3ccccc13)CCCC2` [Tacrine, 9-amino-1,2,3,4-tetrahydroacridine, reference compound], the “Percent Improvement” value in experiment [2] (0.1 mg/kg) was determined as 0%; in experiment [2] (1.0 mg/kg), 26.9%. The “improvement in symptoms of senile dementia patients of Alzheimer type” value in experiment [4] is given as “effectiveness”.
